From US20260000710A1, “Novel Treatments for Cardiovascular Related Disease” (priority 2022, published 2026)

Experiments:
[1] = system: AIM+ and AIM− CD4+ T cells from peptide-expanded PBMCs; assay: TCRβ CDR3 sequencing (immunoSEQ) of sorted AIM+ and AIM− CD4+ T cells; format: cell-based, human; settings: for Log10 Odds Ratio: AIM+ vs AIM−;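 for all read-outs here: genomic DNA from sorted cells as template, amplification bias-controlled two-step multiplex PCR, APOB6 pool at 10 µg/ml per peptide, CD40 blocking antibody added before restimulation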
Experimental: To examine the clonotypic identities of autoreactive CD4^+ T cells, the hypervariable TCRβ DR3 region was sequenced using a DNA-based sequencing technique^42 (Adaptive Biotechnologies), which have been used to profile clonal populations of other self-antigen specific T cells^43. PBMCs from six HLA-typed donors (demographics and HLA-II alleles in Tables 5, 6) were expanded (14-days) and restimulated (24 h) with the APOB6 pool. To isolate viable responder and non-responder CD4^+ T cells from the same pool of stimulated PBMCs (schematic in FIG. 15A, gating strategy in FIG. 151B), the inventors used the AIM assay protocol (FIGS. 2A to 2D).
As a second control, unexpanded PBMCs (day 0 samples), sorted into naïve, central memory (TCM) and effector memory (TEM) CD4^+ T cells, were used (gating strategy in FIG. 15C). This allowed tracing the APOB6-specific AIM^+ T cell clones in naïve and memory T cell lineages. Genomic DNA, isolated from sorted AIM^− and AIM^+ Day 14 samples and naïve, TCM and TEM Day 0 samples from six donors, was used as the starting material for TCRVβ sequencing (schematic in FIG. 15A) using an optimized two-step, amplification bias-controlled multiplex-PCR-based approach^42,44 (immunoSEQ Human TCRB Assay, Adaptive Biotechnologies).
For isolation of APOB epitope-specific CD4^+ T cells, PBMCs were expanded with the APOB6pool (10 μg/ml per peptide). On Day 14, cultured cells were washed and re-stimulated with APOB6 (10 μg/ml) for 24 h (AIM assay protocol). 1 μg/ml of CD40 blocking antibody was added 15 min before stimulation. At the end of the stimulation period, cells were washed with FACS buffer (PBS w/o Ca/Mg, 2% FCS). Day 14 (APOB6 expanded and restimulated) and Day 0 (ex vivo samples with no in vitro stimulation) PBMC samples from six donors were resuspended in a staining master mix containing anti-human Fc-Block (Biolegend), fixable viability dye and antibodies against T cell and non-T cell (Dump) surface markers, activation markers and memory markers (antibody details in Table 4). Viability dye was used at 1:1000 dilution, antibodies were used at a final dilution of 1:100 (activation markers) and 1:200 (other extracellular markers). […] Gates were set based on unstimulated and PHA-L stimulated negative and positive controls, respectively. Antigen-specific AIM^+ and non-specific control AIM^− CD4^+ T cells from Day 14 samples and naïve (CD45RA^+CCR7^+), central memory (CD45RA^−CCR7^+, TCM) and effector memory (CD45RA^−CCR7^−, TEM) CD4^+ T cells from Day 0 PBMCs were sorted into HEPES-containing buffer (PBS with 2% FBS and 0.025 M HEPES) using BD FACSAria flow cytometry sorters. Acquired data was analyzed with FlowJo software.
Genomic DNA was extracted from sorted cells using QIAamp DNA Micro Kit (QIAGEN) and sent to Adaptive Biotechnologies for survey-level TCRβ sequencing (depth ˜60,000 reads) using their established immunoSEQ platform^7. Briefly, highly variable CDR3 regions on somatically rearranged human TCRβ chains were amplified with a two-step multiplex PCR approach using optimized set of primers that target the VDJ region spanning each unique CDR3B. A synthetic repertoire containing all possible V/J templates is used as a built-in control to quantify and correct PCR amplification biases. Processing of raw Illumina sequence reads, filtering, demultiplexing, clustering and mapping of CDR3 sequences and annotation of VDJ genes using IMGT database sequences were performed at Adaptive Biotechnologies and made available for download and analysis.

[2] = system: purified MHC molecules (28 common HLA DP, DQ and DR alleles); assay: HLA class II competition binding assay (inhibition of radiolabeled ligand binding); design: species or system human; settings: alleles bound at <1000 nM threshold
Experimental: Peptides predicted to bind most (≥75%) of the alleles, were experimentally verified in HLA-II binding assays^31. For each peptide, the number of alleles that bound at a <1000 nM threshold level was tabulated. Top 20 promiscuous binders (bind >50% of reference alleles) were selected for further study (FIG. 9A, Table 2).
Next, the capacity of these peptides to bind 28 common HLA alleles (27 from the reference set plus DPB1*03:01) was determined experimentally using classical competition assays based on the inhibition of binding of high affinity radiolabeled ligands to purified MHC molecules^3. Under the conditions utilized, where [radiolabeled peptide] is <[MHC], and [MHC]<[inhibitor peptide], the measured IC50 values, defined as the concentrations of inhibitor peptide that inhibits the binding of the radiolabeled ligand by 50%, are reasonable estimates of true Kd values.

[3] = Donor 5, PBMCs expanded 14 days and restimulated 24 h with APOB6
[4] = Donor 6, PBMCs expanded 14 days and restimulated 24 h with APOB6
[5] = Donor 3, PBMCs expanded 14 days and restimulated 24 h with APOB6
[6] = Donor 2, PBMCs expanded 14 days and restimulated 24 h with APOB6
[7] = Donor 1, PBMCs expanded 14 days and restimulated 24 h with APOB6
[8] = Donor 4, PBMCs expanded 14 days and restimulated 24 h with APOB6

Substance: CATALAGGHEQYF: TCRβ CDR3 clone, TCRBV06-05+TCRBJ02-07, Donor 5
- Log10 Odds Ratio ([1]; Donor 5): 2.60
- No. of clone-specific productive templates, AIM+ CD4+ T (Total 31354) [1, 3]: 753
- No. of clone-specific productive templates, AIM− CD4+ T (Total 48987) [1, 3]: 3

Substance: CATSDFGKEGDEKLFF: TCRβ CDR3 clone, TCRBV24-01+TCRBJ01-04, Donor 5
- Log10 Odds Ratio ([1]; Donor 5): 2.61
- No. of clone-specific productive templates, AIM+ CD4+ T (Total 31354) [1, 3]: 518
- No. of clone-specific productive templates, AIM− CD4+ T (Total 48987) [1, 3]: 2

Substance: CATSEGGRGRGPGELFF: TCRβ CDR3 clone, TCRBV24-01+TCRBJ02-02, Donor 6
- Log10 Odds Ratio ([1]; Donor 6): 2.58
- No. of clone-specific productive templates, AIM+ CD4+ T (Total 34927) [1, 4]: 292
- No. of clone-specific productive templates, AIM− CD4+ T (Total 45364) [1, 4]: 1

Substance: CATSEPGPLNQPQHF: TCRβ CDR3 clone, TCRBV24-01+TCRBJ01-05, Donor 3
- Log10 Odds Ratio ([1]; Donor 3): 1.62
- No. of clone-specific productive templates, AIM+ CD4+ T (Total 16700) [1, 5]: 348
- No. of clone-specific productive templates, AIM− CD4+ T (Total 21770) [1, 5]: 11

Substance: CATSQGVGSGANVLTF: TCRβ CDR3 clone, TCRBV15-01+TCRBJ02-06, Donor 6
- Log10 Odds Ratio ([1]; Donor 6): 2.24
- No. of clone-specific productive templates, AIM+ CD4+ T (Total 34927) [1, 4]: 649
- No. of clone-specific productive templates, AIM− CD4+ T (Total 45364) [1, 4]: 5

Substance: CAWSVGGPGANSPLHF: TCRβ CDR3 clone, TCRBV30-01+TCRBJ01-06, Donor 2
- Log10 Odds Ratio ([1]; Donor 2): 1.16
- No. of clone-specific productive templates, AIM+ CD4+ T (Total 18591) [1, 6]: 369
- No. of clone-specific productive templates, AIM− CD4+ T (Total 7206) [1, 6]: 10

Substance: CSAMSPSGTGELFF: TCRβ CDR3 clone, TCRBV20-X+TCRBJ02-02, Donor 2
- Log10 Odds Ratio ([1]; Donor 2): 12.19
- No. of clone-specific productive templates, AIM+ CD4+ T (Total 18591) [1, 6]: 549
- No. of clone-specific productive templates, AIM− CD4+ T (Total 7206) [1, 6]: 0

Substance: CSARADGQGYGYTF: TCRβ CDR3 clone, TCRBV20-X+TCRBJ01-02, Donor 3
- Log10 Odds Ratio ([1]; Donor 3): 1.73
- No. of clone-specific productive templates, AIM+ CD4+ T (Total 16700) [1, 5]: 996
- No. of clone-specific productive templates, AIM− CD4+ T (Total 21770) [1, 5]: 26

Substance: CSAREGALDNSPLHF: TCRβ CDR3 clone, TCRBV20-X+TCRBJ01-06, Donor 5
- Log10 Odds Ratio ([1]; Donor 5): 2.33
- No. of clone-specific productive templates, AIM+ CD4+ T (Total 31354) [1, 3]: 537
- No. of clone-specific productive templates, AIM− CD4+ T (Total 48987) [1, 3]: 4

Substance: CSAREPHDTSTDTQYF: TCRβ CDR3 clone, TCRBV20-X+TCRBJ02-03, Donor 2
- Log10 Odds Ratio ([1]; Donor 2): 11.98
- No. of clone-specific productive templates, AIM+ CD4+ T (Total 18591) [1, 6]: 338
- No. of clone-specific productive templates, AIM− CD4+ T (Total 7206) [1, 6]: 0

Substance: CSARVTGGGAHTGELFF: TCRβ CDR3 clone, TCRBV20-X+TCRBJ02-02, Donor 1
- Log10 Odds Ratio ([1]; Donor 1): 2.69
- No. of clone-specific productive templates, AIM+ CD4+ T (Total 21697) [1, 7]: 422
- No. of clone-specific productive templates, AIM− CD4+ T (Total 49956) [1, 7]: 2

Substance: CSARWYNEQFF: TCRβ CDR3 clone, TCRBV20-01+TCRBJ02-01, Donor 3
- Log10 Odds Ratio ([1]; Donor 3): 1.82
- No. of clone-specific productive templates, AIM+ CD4+ T (Total 16700) [1, 5]: 349
- No. of clone-specific productive templates, AIM− CD4+ T (Total 21770) [1, 5]: 7

Substance: CSASRTYDNQPQHF: TCRβ CDR3 clone, TCRBV20-01+TCRBJ01-05, Donor 2
- Log10 Odds Ratio ([1]; Donor 2): 11.96
- No. of clone-specific productive templates, AIM+ CD4+ T (Total 18591) [1, 6]: 326
- No. of clone-specific productive templates, AIM− CD4+ T (Total 7206) [1, 6]: 0

Substance: CSATGGTNEKLFF: TCRβ CDR3 clone, TCRBV20-X+TCRBJ01-04, Donor 6
- Log10 Odds Ratio ([1]; Donor 6): 1.59
- No. of clone-specific productive templates, AIM+ CD4+ T (Total 34927) [1, 4]: 500
- No. of clone-specific productive templates, AIM− CD4+ T (Total 45364) [1, 4]: 17

Substance: CSVLQHEQYF: TCRβ CDR3 clone, TCRBV29-01+TCRBJ02-07, Donor 4
- Log10 Odds Ratio ([1]; Donor 4): 0.49
- No. of clone-specific productive templates, AIM+ CD4+ T (Total 25796) [1, 8]: 466
- No. of clone-specific productive templates, AIM− CD4+ T (Total 25928) [1, 8]: 153

Substance: DKRLAAYLMLMRSPS [Peptide 1]
- No. of HLA-II alleles bound [2]: 23

Substance: FLHYIFMENAFELPT [Peptide 3]
- No. of HLA-II alleles bound [2]: 24

Substance: GKIDFLNNYALFLSP [Peptide 14]
- No. of HLA-II alleles bound [2]: 23
